Assay results published in patent US20190015423A1, “REGULATION OF GENE EXPRESSION BY MODULATING PRIMARY CILIA LENGTH” (THE TRUSTEES OF COLUMBIA UNIVERSITY IN THE CITY OF NEW YORK, priority 2016, published 2019).
Entries after “also recorded” stand apart in the source; their conditions may differ. Structures can show the parent of a compound that is named as a salt.

Experiments:
MLO-Y4 osteocytes = assay: Primary cilia length and incidence by immunocytochemistry (acetylated α-tubulin); assay type: cell-based; conditions: for cilia incidence in untransfected (healthy, ciliated) cells: fenoldopam; for cilia incidence in AC6 siRNA treated cells / recovering cilia length in AC6 siRNA treated cells: fenoldopam on AC6 siRNA treated cells
Description: MLO-Y4 osteocytes were cultured on collagen-coated dishes in MEMα (Life Tech) supplemented with 5% fetal bovine serum, 5% calf serum, and 1% penicillin/streptomycin at 37° C. and 5% CO2. […] These agents, or their vehicle control, were applied to cells for 16 h prior to experimentation. MTT, (methylthiazolyldiphenyl-tetrazolium bromide) assay (Sigma) was performed according to manufacturer's protocol to assess cell viability during drug treatments. Phase contrast microscopy with an Olympus CKX41 inverted microscope and 40× objective was used to assess cell morphology.
For primary cilia imaging and analysis, cells cultured on collagen I-coated glass were fixed in 10% formalin and treated with anti-acetylated α-tubulin primary antibody, 1:1, from a C3B9 hybridoma cell line (Sigma). Cilia were visualised with Alexa-Fluor 488 secondary antibody, 1:1000 (Life Technologies) and imaged with a 100× oil objective on an Olympus Fluoview FV1000 confocal microscope. Nuclei were stained with DAPI (Life Technologies). Cilia length was analyzed using Image J software.
Gene silencing was performed by siRNA mediated knockdown and compared to scramble siRNA control (Life Technologies). […]

C57Bl/6 mice = assay: Load-induced bone formation: compressive ulnar loading and dynamic histomorphometry; assay type: in vivo; conditions: ulnar load final 3 days
Description: All data are shown in reference to the non-loaded contralateral limb as control. […] On day 4-6 the mice were subjected to daily axial compressive ulnar loading. Mice were placed under isoflurane anesthesia and forelimbs were placed between two loading cups controlled by an electromagnetic loading system with feedback control (Bose, ELF 3220). An initial 0.1 N preload was applied, followed by 3 N of cyclic compression applied with a 2 Hz sine wave for 120 cycles, generating a strain gage verified average peak deformation of 1895 μstrain. On day 8, mice were subcutaneously injected with calcein (10 mg/kg) and alizarin red (70 mg/kg) on day 12. Mice were euthanized on day 18 and prepared for dynamic histomorphometric analysis.
Compressive ulnar loading was applied on days 5-7 to mechanically stimulate bone (3N at 2 Hz for 120 cycles) [9].
On the final three days of drug or control injection, animals were also subjected to compressive ulnar load at a peak load of 3 N using a 2 Hz sine wave for 120 cycles, as previously described (Temiyasathit, S. et al. PLoS One 7, (2012); Lee, K. L. et al. FASEB J. 28, 1157-1165 (2014)). Contralateral limbs served as a non-loaded control. 2 days following load, mice were treated with 10 mg/kg calcein (Sigma), and 4 days later 70 mg/kg alizarin (Sigma), with mice being sacrificed 6 days later.
Dynamic histomorphometry was performed as previously described, measuring the amount and separation of calcein and alizarin labels to quantify mineralizing surface (rMS/BS), mineral apposition rate (rMAR), and bone formation rate (rBFR/BS) relative to non-loaded controls (Temiyasathit, S. et al. PLoS One 7, (2012); Lee, K. L. et al. FASEB J. 28, 1157-1165 (2014)). Left and right ulnae were dissected and preserved in ethanol. Samples were then infiltrated with methyl methacrylate, and embedded in methyl methacrylate and benzoyl peroxide. Transverse sections of the ulnar midshaft were imaged on a laser scanning confocal microscope (Olympus Fluoview FV1000). Measurements of outer bone perimeter (OP), single label perimeter (SL), double label perimeter (DL), and double label area (DA) were made in ImageJ. The mineralizing surface relative to outer bone surface (MS/BS), mineral apposition rate (MAR), and bone formation rate (BFS/BS) were calculated as:
Relative measurements—rMS/BS, rMAR, rBFR/BS—were determined by subtracting non-loaded from loaded ulnae to display differences due to mechanical load.

[1] = Adverse effects of drug treatment: body, kidney and liver weight, H&E histology, bone ultrastructure, injection site; assay type: in vivo, mice; conditions: fenoldopam 20 mg/kg; for visible bone ultrastructure: loaded ulnae
Excerpt: Mice were housed in the Columbia University Barrier Facility and fed ad libidum. All procedures performed were in accordance with Columbia University Institutional Animal Care and Use Committee guidelines.
Kidneys and liver were dissected from animals, weighed, fixed in 10% formalin, and stored in 70% ethanol before being paraffin embedded. 5 μm thick longitudinal sections were made, and samples were stained with hematoxylin and eosin to visualize tissue structure. Images were captured at 4× magnification. Kidney function was broadly examined by urine creatinine concentration. […] Hydrophobic sand (Lab Sand) was used for urine sample collection, and analysis was performed using a total urine creatinine kit (Cayman Chemical).

[2] = fenoldopam 100 mg/kg, rat model (Dalmas et al. 2008); cited from earlier work
[3] = fenoldopam on IFT88 siRNA treated cells
[4] = fenoldopam 20 mg/kg s.c. 7 consecutive days, relative to non-loaded limb, vs vehicle
[5] = fenoldopam 20 mg/kg s.c. 7 consecutive days, relative to non-loaded limb, vs vehicle, listed as Fenoldopam
[6] = fenoldopam 50 mg/kg (Fen-High) s.c. 7 consecutive days

SMILES: Oc1ccc(C2CNCCc3c2cc(O)c(O)c3Cl)cc1 (stereo not shown) [fenoldopam, Fenoldopam mesylate]
- primary cilia length compared to vehicle control (in words) (MLO-Y4 osteocytes; 10 μM fenoldopam, 16 h): significantly increases
- primary cilia length compared to vehicle control (in words) (MLO-Y4 osteocytes; 10 μM fenoldopam, 16 h, listed as Fenoldopam): increased
- increases in cilia length compared to vehicle control (MLO-Y4 osteocytes; 10 μM fenoldopam, 16 h, mean±SEM): 26%±7%
- cilia incidence in untransfected (healthy, ciliated) cells (MLO-Y4 osteocytes): no significant effect
- cilia incidence in AC6 siRNA treated cells (MLO-Y4 osteocytes): Neither AC6 siRNA nor fenoldopam alter cilia incidence
- recovering cilia length in AC6 siRNA treated cells (MLO-Y4 osteocytes): not recovered
- cilia incidence in AC6 siRNA treated cells (MLO-Y4 osteocytes; listed as Fenoldopam): no effect
- recovering cilia length in AC6 siRNA treated cells (MLO-Y4 osteocytes; listed as Fenoldopam): no effect
- cilia incidence in IFT88 siRNA treated cells (MLO-Y4 osteocytes; [3]): significantly recovering; also recorded: recovered
- cilia length / formation in IFT88 siRNA treated cells (MLO-Y4 osteocytes; [3]): noticeably recovered; also recorded: appears to recover cilia length
- cilia length / formation in IFT88 siRNA treated cells (MLO-Y4 osteocytes; fenoldopam on IFT88 siRNA treated cells, listed as Fenoldopam): recovers primary cilia formation
- cilia incidence in untransfected (healthy, ciliated) cells (MLO-Y4 osteocytes; listed as Fenoldopam): no effect
- bone formation rate (rBFR/BS) (C57Bl/6 mice; [4]): significantly increased; also recorded: significant increases; also recorded: significantly enhanced
- mineral apposition rate (rMAR) (C57Bl/6 mice; [4]): significantly increased; also recorded: significant increases
- mineralizing surface (rMS/BS) (C57Bl/6 mice; [4]): remained unchanged; also recorded: neither fenoldopam concentration elicited a significant increase
- bone formation rate (rBFR/BS) (C57Bl/6 mice; [5]): enhances
- mineralizing surface (rMS/BS) (C57Bl/6 mice; [5]): no effect
- bone formation rate (rBFR/BS) (C57Bl/6 mice; [6]): no statistically significant difference; also recorded: no effect; also recorded: elicited no bone formation response
- mineral apposition rate (rMAR) (C57Bl/6 mice; [6]): no statistically significant difference; also recorded: no effect
- mineralizing surface (rMS/BS) (C57Bl/6 mice; [6]): no statistically significant difference; also recorded: no effect
- visible bone ultrastructure ([1]; 7 days, vs vehicle control): no difference
- visible bone ultrastructure ([1]; 7 days, vs vehicle control, listed as Fenoldopam): no qualitative change
- kidney morphology assessed by H&E stain ([1]; 7 days, vs vehicle control): remained unchanged
- kidney weight ([1]; 7 days, vs vehicle control): remained unchanged
- mouse weight ([1]; 7 days, vs vehicle control): remained unchanged
- kidney histology ([1]; preliminary study): no abnormalities or cysts
- kidney weight to body mass measurements ([1]; preliminary study): no different than vehicle controls
- vasotoxicity [2]: vasotoxic
